The test system of experiment [1] is Bacteria. Nature of the experiment: Inhibition of bacterial VIM-2 assessed as substrate hydrolysis at 50 uM using imipenem as substrate by spectrophotometric analysis relative to control.
In experiment [2] the target is Metallo-beta-lactamase type 2 (Bacteria) (UniProt C7C422). Nature of the experiment: Inhibition of bacterial NDM-1 assessed as substrate hydrolysis at 50 uM using imipenem as substrate by spectrophotometric analysis relative to control.
Experiment [3] deals with Bacteria. Nature of the experiment: Inhibition of bacterial IMP-1 assessed as substrate hydrolysis at 50 uM using imipenem as substrate by spectrophotometric analysis relative to control.

The structures appear in SMILES notation.

Chain of Metallo-beta-lactamase type 2 (Bacteria) (C7C422 whole entry): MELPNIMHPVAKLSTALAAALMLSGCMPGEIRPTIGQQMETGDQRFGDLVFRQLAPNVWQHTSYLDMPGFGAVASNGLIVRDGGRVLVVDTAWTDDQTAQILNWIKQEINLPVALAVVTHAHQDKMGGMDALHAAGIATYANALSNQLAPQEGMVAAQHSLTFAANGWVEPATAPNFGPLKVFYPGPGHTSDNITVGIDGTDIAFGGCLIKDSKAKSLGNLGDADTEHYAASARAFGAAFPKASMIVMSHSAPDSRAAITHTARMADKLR

Regarding `CN1CCN(c2ccc(/C=C3\Oc4cccc(O)c4C3=O)cc2)CC1`, the inhibition with Bacteria [1] is under 10%; in experiment [2], under 10%; with Bacteria [3], 12%.
In the case of `COc1ccc(/C=C2\Oc3ccccc3C2=O)c(OC)c1OC`, the inhibition (with Bacteria [1]; in experiment [2]; in the experiment on Bacteria [3]) was under 10% each time.
As for `COc1ccc(/C=C2\Oc3cc(O)cc(O)c3C2=O)cc1OC`, the results for the inhibition (in the experiment on Bacteria [1]; in experiment [2]; in the experiment on Bacteria [3]) were under 10%, 23% and 21%, respectively.
Turning to `COc1cc(/C=C2\Oc3cc(O)ccc3C2=O)ccc1O`, the inhibition in the experiment with Bacteria [1] is 14%; in experiment [2], under 10%; in the experiment on Bacteria [3], 13%.
The matching figures for `COc1ccc(/C=C2\Oc3c(O)cccc3C2=O)cc1`: under 10%, 20% and under 10%.
Turning to `CCCCOc1ccc(/C=C2\Oc3cc(O)cc(O)c3C2=O)c(O)c1`, in experiment [2], the inhibition came out at 46%.
Take `CN(C)c1ccc(/C=C2\Oc3cc(O)cc(O)c3C2=O)c(O)c1`: the inhibition in the experiment on Bacteria [1] is under 10%; in experiment [2], 55%; with Bacteria [3], 27%.
Regarding `COc1ccc(/C=C2\Oc3cc(O)cc(O)c3C2=O)c(OC)c1OC`, the inhibition with Bacteria [1] was under 10%; in experiment [2], 14%; in the experiment with Bacteria [3], 20%.
For `COc1cc(/C=C2\Oc3ccccc3C2=O)ccc1O`, the inhibition (in the experiment on Bacteria [1]; in experiment [2]; in the experiment with Bacteria [3]) was under 10% throughout.
For `COc1ccc(/C=C2\Oc3cc(O)cc(O)c3C2=O)cc1`, the inhibition in the experiment with Bacteria [1] was under 10%; in experiment [2] it was 38%; with Bacteria [3] it was 20%.
Turning to `O=C1/C(=C/c2ccc(O)c(O)c2)Oc2cccc(O)c21`, the inhibition with Bacteria [1] is under 10%; in experiment [2], 12%; in the experiment on Bacteria [3] it was under 10%.
In the case of `COc1ccc(/C=C2\Oc3cc(OC)cc(OC)c3C2=O)c(OC)c1`, the inhibition (in the experiment with Bacteria [1]; in experiment [2]; with Bacteria [3]) was under 10% throughout.
As to `Cn1cc(/C=C2\Oc3cccc(O)c3C2=O)c2cc(Br)ccc21`, the figures for the inhibition (in the experiment with Bacteria [1]; in experiment [2]; with Bacteria [3]) were under 10%, under 10% and 21.4%, respectively.
In the case of `O=C1/C(=C/c2ccc(O)cc2O)Oc2c1ccc(O)c2O`, the inhibition in the experiment on Bacteria [1] was under 10%; in experiment [2] it was 20%; in the experiment with Bacteria [3], 24%.
For `O=C1/C(=C/c2ccc3ccccc3c2)Oc2c1ccc(O)c2O`, the values for the inhibition (in the experiment with Bacteria [1]; in experiment [2]; in the experiment with Bacteria [3]) were under 10%, 50% and 19%, respectively.
On to `O=C1/C(=C/c2ccc(C3CCCCC3)cc2)Oc2cc(O)cc(O)c21`, for which the inhibition in the experiment on Bacteria [1] is under 10%; in experiment [2] it was 16%; with Bacteria [3], under 10%.
On to `COc1cc(OC)c2c(c1)O/C(=C\c1ccc(-c3cccs3)cc1)C2=O`, for which the figures for the inhibition (with Bacteria [1]; in experiment [2]; in the experiment on Bacteria [3]) were under 10%, 39% and 24%, respectively.
For `CCCCc1ccc(/C=C2\Oc3c(ccc(O)c3O)C2=O)cc1` the same measures were under 10%, under 10% and under 10%.
On to `COc1cc(OC)c2c(c1)O/C(=C\c1ccc(F)cc1F)C2=O`, for which the inhibition was under 10% with Bacteria [1], 35% in experiment [2] and 32% with Bacteria [3].
`CC[C@H](C)Cn1cc(/C=C2\Oc3cc(O)cc(O)c3C2=O)c2ccccc21`: the inhibition in the experiment on Bacteria [1] was under 10%; in experiment [2], 49%; with Bacteria [3] it was 46%.
The matching figures for `O=C1/C(=C/c2ccc(O)cc2O)Oc2c(O)cccc21`: under 10%, under 10% and under 10%.
As to `O=C(O)c1ccc(/C=C2\Oc3c(O)cccc3C2=O)cc1`, the inhibition is under 10% in the experiment with Bacteria [1], 24% in experiment [2] and under 10% with Bacteria [3].
As to `O=C1/C(=C/c2ccc(F)cc2)Oc2c(O)cccc21`, the inhibition (with Bacteria [1]; in experiment [2]; in the experiment on Bacteria [3]) was under 10% each time.
Take `O=C1/C(=C/c2c(O)cc(O)cc2O)Oc2c(O)cccc21`: the inhibition (in the experiment with Bacteria [1]; in experiment [2]; in the experiment on Bacteria [3]) was under 10% throughout.
In the case of `Cn1cc(/C=C2\Oc3cc(O)cc(O)c3C2=O)c2ccccc21`, the inhibition in the experiment with Bacteria [1] is under 10%; in experiment [2], 46%; in the experiment with Bacteria [3], 28%.
The matching figures for `O=C1/C(=C/c2ccc(-n3ccnc3)cc2)Oc2cc(O)cc(O)c21`: under 10%, 51% and 23%.
On to `COc1ccc(/C=C2\Oc3cc(O)cc(O)c3C2=O)c(OC)c1`, for which the inhibition was under 10% in the experiment on Bacteria [1], 52% in experiment [2] and 43.6% in the experiment with Bacteria [3].
Consider `Cc1cccc(Cn2cc(/C=C3\Oc4cc(O)cc(O)c4C3=O)c3ccccc32)c1`, for which the inhibition is 11% in the experiment with Bacteria [1], 54% in experiment [2] and 43% with Bacteria [3].
For `O=C1/C(=C/c2ccc(C(F)(F)F)cc2)Oc2c1ccc(O)c2O` the same measures were under 10%, under 10% and 17%.
The matching figures for `COc1cc(O)ccc1/C=C1\Oc2cc(O)ccc2C1=O`: under 10%, under 10% and 13%.
For the compound `O=C1/C(=C/c2ccc(O)cc2O)Oc2ccccc21`, the inhibition (in the experiment on Bacteria [1]; in experiment [2]; with Bacteria [3]) was under 10% in each case.
Turning to `O=C1/C(=C/c2ccc(Cl)cc2)Oc2cc(O)cc(O)c21`, the inhibition is under 10% in the experiment with Bacteria [1], 11% in experiment [2] and 14% in the experiment with Bacteria [3].
For `O=C1/C(=C/c2cn(Cc3ccccc3Br)c3ccccc23)Oc2cc(O)cc(O)c21` the same measures were under 10%, under 10% and 23%.
The matching figures for `C=CCn1cc(/C=C2\Oc3cc(O)cc(O)c3C2=O)c2ccccc21`: under 10%, under 10% and 16%.
For `Cc1ccc(O)c(/C=C2\Oc3cc(O)cc(O)c3C2=O)c1`, the inhibition with Bacteria [1] was under 10%; in experiment [2] it was under 10%; with Bacteria [3], 12%.
On to `O=C1/C(=C/c2ccc(O)cc2O)Oc2c1ccc(O)c2I`, for which the figures for the inhibition (in the experiment with Bacteria [1]; in experiment [2]; with Bacteria [3]) were 13%, under 10% and 15%, respectively.
`CN1CCN(c2ccc(/C=C3\Oc4cc(O)ccc4C3=O)cc2)CC1`: the inhibition in the experiment with Bacteria [1] is under 10%; in experiment [2], under 10%; in the experiment on Bacteria [3], 19%.
For the compound `COc1ccc(/C=C2\Oc3c(ccc(O)c3O)C2=O)c(OC)c1`, the inhibition in the experiment with Bacteria [1] was found to be 10.3%; in experiment [2], 30%; with Bacteria [3] it was 28%.
For `O=C1/C(=C/c2ccccc2O)Oc2cc(O)ccc21` the same measures were under 10%, under 10% and under 10%.
The matching figures for `O=C1/C(=C/c2ccc(O)cc2O)Oc2cc(O)cc(O)c21`: under 10%, under 10% and 14%.
For `O=C1/C(=C/c2c(O)cc(O)cc2O)Oc2cc(O)ccc21` the same measures were under 10%, under 10% and under 10%.
For `Cn1cc(/C=C2\Oc3cc(O)ccc3C2=O)c2cc(Br)ccc21`, the figures for the inhibition (with Bacteria [1]; in experiment [2]; with Bacteria [3]) were under 10%, 18% and 39%, respectively.
The matching figures for `COc1cc(OC)c2c(c1)O/C(=C\c1ccc(OC)c(OC)c1OC)C2=O`: under 10%, under 10% and 17%.
With `NCCN[C@H]1CC[C@@H](CC(=O)N[C@H]2Cc3cccc(C(=O)O)c3OB2O)CC1`, the inhibition in the experiment with Bacteria [1] was over 98%; in experiment [2], over 98%; in the experiment with Bacteria [3] it was 41%.
For the compound `CC(C)(C)CCn1cc(/C=C2\Oc3cc(O)cc(O)c3C2=O)c2ccccc21`, the inhibition in the experiment on Bacteria [1] was under 10%; in experiment [2] it was 11.2%; with Bacteria [3], 28%.
The matching figures for `CC(C)CCn1cc(/C=C2\Oc3cc(O)cc(O)c3C2=O)c2ccccc21`: under 10%, 18% and 47.1%.
For `COc1ccc(/C=C2\Oc3cc(O)ccc3C2=O)c(OC)c1` the same measures were under 10%, 17% and 17.9%.
For the compound `COc1cc(O)ccc1/C=C1\Oc2ccccc2C1=O`, the inhibition (in the experiment on Bacteria [1]; in experiment [2]; in the experiment on Bacteria [3]) was under 10% each time.
In the case of `O=C1/C(=C/c2ccc(O)cc2O)Oc2cc(O)ccc21`, the inhibition (in the experiment on Bacteria [1]; in experiment [2]; in the experiment on Bacteria [3]) was under 10% in each case.
On to `CCCCn1cc(/C=C2\Oc3cc(O)cc(O)c3C2=O)c2cc(O)ccc21`, for which the inhibition was under 10% with Bacteria [1], under 10% in experiment [2] and 30% in the experiment on Bacteria [3].
Consider `O=C1/C(=C/c2ccc(O)cc2)Oc2cc(O)cc(O)c21`, for which the inhibition was under 10% in the experiment with Bacteria [1], under 10% in experiment [2] and 12.4% with Bacteria [3].
Consider `O=C1/C(=C/c2ccc(Cl)cc2)Oc2c(O)cccc21`, for which the inhibition (with Bacteria [1]; in experiment [2]; with Bacteria [3]) was under 10% throughout.
On to `O=C1/C(=C/c2ccccc2O)Oc2cc(O)cc(O)c21`, for which the inhibition with Bacteria [1] is under 10%; in experiment [2], under 10%; in the experiment on Bacteria [3], 14%.
Consider `CCc1ccc(/C=C2\Oc3cc(O)cc(O)c3C2=O)cc1`, for which the inhibition in the experiment on Bacteria [1] was under 10%; in experiment [2] it was 55%; in the experiment on Bacteria [3] it was 24.9%.
In the case of `O=C1/C(=C/c2cn(Cc3ccc(Br)cc3)c3ccccc23)Oc2cc(O)cc(O)c21`, the inhibition was under 10% in the experiment on Bacteria [1], 44% in experiment [2] and 22% with Bacteria [3].

The record behind these values is ChEMBL document CHEMBL5356995, “Aurones and derivatives as promising New Delhi metallo-β-lactamase (NDM-1) inhibitors” (Bioorg Med Chem, 2024).
